Data published in US20200268847A1, “Methods of Treating Newly Diagnosed Multiple Myeloma with a Combination of An Antibody that Specifically Binds CD38, Lenalidomide and Dexamethasone” (Janssen Biotech, Inc., priority 2019, published 2020).

What was measured:
[1] = tested on: transplant-ineligible newly diagnosed multiple myeloma (NDMM); test: MAIA subgroup analysis by age (<75 vs ≥75 y): efficacy; type: in vivo, human; settings: for PFS HR (95% CI): DRd vs Rd
Method: To examine the impact of age on the efficacy and safety of D-Rd vs Rd in this patient population, a subgroup analysis was conducted within patients <75 and >75 y of age.
Transplant-ineligible NDMM patients were randomized 1:1 to Rd±DARA; stratification was based on age (<75 vs >75 years), ISS (I, II, III), and region (North America vs Other). In standard Rd dosing, patients received 28-day cycles of lenalidomide 25 mg PO QD on Days 1-21 and dexamethasone 40 mg PO on Days 1, 8, 15 and 22 until progression. A portion of patients received 10 mg lenalidomide and 20 mg dexamethasone at the beginning of the treatment. In the DRd arm, patients received daratumumab (DARZALEX®) 16 mg/kg IV QW for Cycles 1-2, Q2W for Cycles 3-6, and Q4W thereafter until progression. PFS was the primary endpoint.

[2] = tested on: patients with newly diagnosed multiple myeloma ineligible for HDC and ASCT; settings: in vivo
Description: Safety will be measured by adverse events, laboratory test results, ECGs, vital sign measurements, physical examination findings, and assessment of ECOG performance status score.
Safety analyses included adverse event assessment graded in severity according to NCI-CTCAE version 4, electrocardiograms, clinical laboratory testing, physical examinations, and vital signs.
The safety population included patients who received any dose of trial treatment.

[3] = tested on: newly diagnosed multiple myeloma, patients ineligible for HDC and ASCT; test: Phase 3 MAIA study (NCT02252172), interim analysis: progression-free survival, response by IMWG criteria, survival; type: in vivo, human
Method: Subject participation will include a Screening Phase, a Treatment Phase, and a Follow-up Phase. The Screening Phase will be up to 21 days before Cycle 1, Day 1. The Treatment Phase will extend from Day 1 of Cycle 1 until discontinuation of all study treatment. […] This will equate to […] of dosing at the start of the study and a total of 23 doses in the first year. Lenalidomide will be administered at a dose of 25 mg orally (PO) on Days 1 through 21 of each 28-day cycle, and dexamethasone will be administered at a dose of 40 mg once a week. Subjects in both treatment arms will continue lenalidomide and dexamethasone until disease progression or unacceptable toxicity. […] Randomization will be stratified by International Staging System (I vs II vs III), region (North America vs Other), and age (<75 vs >75), using an equal allocation ratio of 1:1.
The primary endpoint is PFS, which is defined as the duration from the date of randomization to either progressive disease, or death, whichever occurs first. Disease progression will be determined according to the IMWG criteria.
The secondary efficacy endpoints include: • Time to disease progression (TTP) is defined as the time from the date of randomization to the date of first documented evidence of PD, as defined in the IMWG criteria. […] Disease progression will be based on investigator judgment. For those subjects who are still alive and not yet progressed on the next line of treatment, they will be censored on the last date of follow-up. • Overall survival (OS), measured from the date of randomization to the date of the subject's death. […] For subjects without response, data will be censored either at the date of progressive disease or, in the absence of progressive disease, at the last disease evaluation before the start of subsequent anti-myeloma therapy. • Duration of response, calculated from the date of initial documentation of a response (PR or better) to the date of first documented evidence of progressive disease, as defined in the IMWG criteria. For subjects who have not progressed, data will be censored at the last disease evaluation before the start of any subsequent anti-myeloma therapy. • To evaluate clinical efficacy of DRd in high risk molecular subgroups compared to Rd alone. • To evaluate the impact of DRd compared to Rd on patient-reported perception of global health.
Disease evaluations will be performed by a central laboratory (unless otherwise specified). This study will use the IMWG consensus recommendations for multiple myeloma treatment response criteria (Durie et al., Leukemia, 20:[…], 2006, Rajkumar et al., Blood, 117:4691-4695, 2011) presented in Table 1. For quantitative immunoglobulin, M-protein, and immunofixation measurements in serum and 24 hour urine, the investigator will use results provided by the central laboratory.
The primary endpoint was progression-free survival. The study protocol is described in Example 1.
Patients were stratified by International Staging System (ISS; I vs. II vs. III), region (North America vs. Other), and age (<75 years vs. >75 years).
During each 28-day cycle, all patients received oral lenalidomide (25 mg, Days 1-21) and oral dexamethasone (40 mg, Days 1, 8, 15, and 22) until disease progression or unacceptable toxicity. For patients older than 75 years of age or with body mass index less than 18.5 kg/m^2, dexamethasone was administered at a dose of 20 mg once weekly. […] Pre-infusion medications were administered to manage infusion reactions.
The primary endpoint was progression-free survival (time from date of randomization to either disease progression or death).

[4] = ITT population, median follow-up 28.0 months

daratumumab (DARZALEX®) group: daratumumab (DARZALEX®) in combination with lenalidomide and dexamethasone
30-mo PFS ([1]; <75 y): 75%
MRD-negative rate (10^−5) ([1]; <75 y): 28%
ORR ([1]; <75 y): 95%
≥CR ([1]; <75 y): 52%
≥VGPR ([1]; <75 y): 81%
PFS HR (95% CI) ([1]; <75 y, listed as D-Rd): 0.50
PFS HR (95% CI) ([1]; <75 y, listed as DRd): 0.50 (0.35-0.71)
PFS Median ([1]; <75 y, median follow-up 28 months, listed as D-Rd): not reached
30-mo PFS ([1]; ≥75 y): 66%
MRD-negative rate (10^−5) ([1]; ≥75 y): 19%
ORR ([1]; ≥75 y): 90%
≥CR ([1]; ≥75 y): 41%
≥VGPR ([1]; ≥75 y): 77%
PFS HR (95% CI) ([1]; ≥75 y, listed as D-Rd): 0.63
PFS HR (95% CI) ([1]; ≥75 y, listed as DRd): 0.63 (0.44-0.92)
discontinuation of trial treatment due to infections [2]: 0.5%
rate of any-grade infections [2]: 86.3%
rate of grade 3 or 4 infections [2]: 32.1%
events of progression or death while receiving the next line of therapy ([3]; 155 events in total): 68 patients
patients with disease progression events (time-to-event analysis of disease progression) ([3]; 179 events in total): 17.9%
reduction of the risk of progression or death ([3]; DRd vs Rd, primary analysis of MAIA): 44%
Kaplan-Meier estimate of the 30-month rate of progression-free survival ([3]; ITT population): 70.6%
median time to progression ([3]; ITT population): not being reached
Overall response: No. with response ([3]; ITT population (N = 368 vs 369), median follow-up 28.0 months): 342
median overall survival ([3]; ITT population, long-term follow-up ongoing): not reached
median progression-free survival ([3]; ITT population, median follow-up 28 months): not reached
Best overall response: Complete response [3, 4]: 63 (17.1) no. (%)
Best overall response: Complete response or better [3, 4]: 175 (47.6) no. (%)
Best overall response: Partial response [3, 4]: 50 (13.6) no. (%)
Best overall response: Progressive disease [3, 4]: 1 (0.3) no. (%)
Best overall response: Response could not be evaluated [3, 4]: 14 (3.8) no. (%)
Best overall response: Stringent complete response [3, 4]: 112 (30.4) no. (%)
Best overall response: Very good partial response [3, 4]: 117 (31.8) no. (%)
Best overall response: Very good partial response or better [3, 4]: 292 (79.3) no. (%)
Overall response rate [3, 4]: 92.9%
rate of complete response or better ([3]; ITT population, P<0.0001): 47.6%
rate of very good partial response or better ([3]; ITT population, P<0.0001): 79.3%
treatment discontinued due to progressive disease ([3]; at clinical cutoff date Sep. 24, 2018): 14.6%
36-month rate of progression-free survival 2 ([3]; in vivo): 77.1%
median duration of response ([3]; in vivo): not reached
median time to complete response or better ([3]; in vivo): 10.4 months
median time to first response among responders ([3]; in vivo): 1.05 months
patients with events of disease progression or death ([3]; median follow-up 28.0 months, 240 events in total): 26.4%
deaths ([3]; number of deaths, 138 in total, median follow-up 28.0 months): 62
median progression-free survival 2 ([3]; progression on next line of therapy or death): not reached
